target: T1, human glucagon receptor (Homo sapiens, UniProt P47871); experiment: Glucagon Binding Assay (III); details: BHK cell membranes, WGA SPA beads, 125I-glucagon; read-out: Glu Bd Assay (III) IC50
T1 construct: expressed in transfected cells; host or cells: BHK (baby hamster kidney) cells
How it was run: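 Membranes from BHK cells transfected with the human receptor, prepared at 4 °C, were used in a WGA-bead scintillation proximity binding format. Plates were shaken for 4 hours, left to settle 8–48 hours and then counted. Non-specific binding was defined with 500 nM glucagon.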

T1 sequence (P47871 26-477): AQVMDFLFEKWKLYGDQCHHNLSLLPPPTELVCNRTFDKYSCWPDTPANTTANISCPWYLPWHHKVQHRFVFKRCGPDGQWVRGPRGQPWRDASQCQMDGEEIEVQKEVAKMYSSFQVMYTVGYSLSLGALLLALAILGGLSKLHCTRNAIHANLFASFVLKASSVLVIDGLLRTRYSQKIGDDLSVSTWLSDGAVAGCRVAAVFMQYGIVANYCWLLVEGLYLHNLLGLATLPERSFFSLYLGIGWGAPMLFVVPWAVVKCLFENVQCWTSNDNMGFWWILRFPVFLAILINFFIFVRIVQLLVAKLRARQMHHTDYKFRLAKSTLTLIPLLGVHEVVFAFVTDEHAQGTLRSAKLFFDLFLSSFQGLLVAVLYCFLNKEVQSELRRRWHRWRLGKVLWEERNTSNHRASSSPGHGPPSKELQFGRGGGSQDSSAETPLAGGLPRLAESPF

Compared with `CCCCC(CC)CN(Cc1ccc(C(=O)NCCC(=O)O)cc1)C(=O)Nc1ccc(C)cc1` (centres unmarked) [Example 39, 3-{4-[1-(2-Ethylhexyl)-3-p-tolylureidomethyl]benzoylamino}propionic acid], `CCc1ccc(NC(=O)N(CCc2ccc(Cl)c(Cl)c2)Cc2ccc(C(=O)NCCC(=O)O)cc2)cc1` [Example 46, 3-{4-[1-[2-(3,4-Dichlorophenyl)ethyl)-3-(4-ethylphenyl)ureidomethyl]benzoylamino}propionic acid] is 2-fold higher in IC50: 227 nM for the first, 456 nM for the second.

Going from `CC(C)(C)C1CCC(N(Cc2ccc(C(=O)NCCC(=O)O)cc2)C(=O)Oc2ccc(OC(F)(F)F)cc2)CC1` (centres unmarked) [Example 405, 3-(4-{[(4-tert-Butylcyclohexyl)-(4-trifluoromethoxyphenoxecarbonyl)amino]methyl}benzoylamino)propionic acid] to `CC(C)(C)C1CCC(N(Cc2ccc(C(=O)Nc3nn[nH]n3)cc2)C(=O)Nc2ccc(OC(F)(F)F)c(S(C)(=O)=O)c2)CC1` (centres unmarked) [Example 313, 4-[1-(4-tert-Butylcyclohexyl)-3-(3-methylsulfonyl-4-trifluoromethoxyphenyl)ureidomethyl]-N-(2H-tetrazol-5-yl)benzamide], the IC50 falls from 224 nM to 18 nM (12-fold). The second is the more potent here.

Going from `CC(C)(C)c1ccc(N(Cc2ccc(C(=O)Nc3nn[nH]n3)cc2)C(=O)Nc2cc(Cl)cc(Cl)c2)cc1` [Example 333, 4-[1-(4-tert-Butylphenyl)-3-(3,5-dichlorophenyl)ureidomethyl]-N-(2H-tetrazol-5-yl)benzamide] to `CC(C)(C)c1ccc(N(Cc2ccc(C(=O)Nc3nn[nH]n3)cc2)C(=O)Oc2ccc(S(C)(=O)=O)cc2)cc1` [Example 624], the IC50 rises from 26 nM to 2000 nM (77-fold).

Compared with `CC(C)(C)c1ccc(N(Cc2ccc(C(=O)Nc3nn[nH]n3)cc2)C(=O)c2cc3cc(OC(F)(F)F)ccc3[nH]2)cc1` [Example 559, 5-Trifluoromethoxy-1H-indole-2-carboxylic acid (4-tert-butylphenyl)-[4-(2H-tetrazol-5-ylcarbamoyl)benzyl]amide], `O=C(Nc1nn[nH]n1)c1ccc(CN(C(=O)Nc2cccc(Br)c2)c2ccc(C3=CCCCC3)cc2)cc1` [Example 349, 4-[3-(3-Bromophenyl)-1-(4-cyclohex-1-enylphenyl)ureidomethyl]-N-(2H-tetrazol-5-yl)benzamide] is 180-fold lower in IC50: 1090 nM for the first, 6 nM for the second. The second is the more potent here.

Going from `CC(C)(C)C1CCC(N(Cc2ccc(C(=O)Nc3nn[nH]n3)cc2)C(=O)Nc2cccc(C#N)c2)CC1` (centres unmarked) [Example 274, 4-[1-(4-tert-Butylcyclohexyl)-3-(3-cyanophenyl)ureidomethyl]-N-(2H-tetrazol-5-yl)benzamide] to `CC(C(=O)N(Cc1ccc(C(=O)Nc2nn[nH]n2)cc1)C1CCC(C(C)(C)C)CC1)c1ccccc1` (centres unmarked) [Example 550, 4-{[(4-tert-Butylcyclohexyl)-(2-Phenylpropionyl)amino]methyl}-N-(2H-tetrazol-5-yl)benzamide], the IC50 rises from 94 nM to 381 nM (4.1-fold). The first is the more potent here.

`O=C(Nc1nn[nH]n1)c1ccc(CN(C(=O)Nc2cccc(S(=O)(=O)N3CCc4ccccc43)c2)c2ccc(C3CCCCC3)cc2)cc1` [Example 267, 4-{1-(4-Cyclohexylphenyl)-3-[3-(2,3-dihydroindole-1-sulfonyl)phenyl]ureidomethyl}-N-(2H-tetrazol-5-yl)benzamide] and `O=C(Nc1nn[nH]n1)c1ccc(CN(C(=O)Nc2cccc([N+](=O)[O-])c2)c2ccc(C3=CCCCC3)cc2)cc1` [Example 308, 4-[1-(4-Cyclohex-1-enylphenyl)-3-(3-nitrophenyl)ureidomethyl]-N-(2H-tetrazol-5-yl)benzamide] are within 1.5-fold of each other in IC50: 86 nM for the first, 61 nM for the second.

`O=C(O)CCNC(=O)c1ccc(CN(CCc2ccc(Cl)c(Cl)c2)C(=O)Nc2ccc(OC(F)(F)F)cc2)cc1` [Example 19, 3-{4-[1-[2-(3,4-Dichlorophenyl)ethyl]-3-(4-trifluoromethoxyphenyl)ureidomethyl]benzoylamino}propionic acid] was tested, and the IC50 was 201 nM.

same assay, conditions: Glu Bd Assay (III) IC50 (nM), BHK cell membranes, WGA SPA beads, 125I-glucagon

In the case of `CC(C)(C)[C@H]1CC[C@H](N(Cc2ccc(C(=O)NCC(=O)O)cc2)C(=O)Nc2ccc(OC(F)(F)F)cc2)CC1` [Example 95, 3-{4-[1-(trans-4-tert-Butylcyclohexyl)-3-(4-trifluoromethoxyphenyl)ureidomethyl]benzoylamino}acetic acid], the IC50 is reported as 1700 nM.
